Values quoted from earlier work, collected in PMC4452912 (Viruses, 2015).

Key:
[1] = system: DENV, HCV, and HIV; design: method as in ref 3 = [3]; conditions: cited from earlier work
[2] = mouse, in vivo; cited from earlier work
[3] = system: DENV-2; design: method as in ref 16 = [16]; conditions: DENV-2 ADE mouse model; cited from earlier work

Structure (SMILES) | concentrations required for broad-spectrum antiviral activity in vitro [1] | thymus effect [2] | dose range promoting survival [3]
CCCCN1C[C@H](O)[C@@H](O)[C@H](O)[C@H]1CO [NB-DNJ, N-butyl-deoxynojirimycin] | > 30 µM | thymus weight loss | –
COCCCCCCCCCN1C[C@H](O)[C@@H](O)[C@H](O)[C@H]1CO [UV-4] | – | – | 10 to 20 mg/kg
